From patent US6461997B1, “Triazole sulfones having herbicidal activity” (Monsanto Technology LLC, priority 1999, dated 2002)

Tests used:
rice (ORYSA) = assay: Selectivity test, PPI, warm season crop; type: in vivo, Oryza sativa; conditions: PPI application
Description: (§1) A pre-prepared topsoil mixture (described above) was placed in a pot and compacted to a depth of 1.0 to 1.25 cm from the top of the pot. Seeds of each of several monocotyledonous and dicotyledonous annual plant species were placed on top of the soil. A sufficient quantity of soil to cover the seeds and level fill the pot was weighed into an open container. A known amount of the test compound was dissolved or suspended in an organic solvent and applied by spraying to this cover soil. The cover soil was thoroughly mixed to distribute the test compound throughout the cover soil, and was then applied as a cover layer over the seeds. Untreated soil was used as a cover layer for control pots. After treatment the plants were placed in a greenhouse where they received 0.64 cm of overhead irrigation. All subsequent watering consisted of a light overhead mist and/or subirrigation as needed for germination and growth. Tables 9 and 10 below relate to warm season plant species which were placed after pre-emergence treatment in a greenhouse with a 30/21° C. day/night temperature regime. Tables 11 and 12 below relates to cool season plant species placed after pre-emergence treatment in a greenhouse or growth chamber with an 18/13° C. day/night temperature regime. Only the compounds of Examples 1, 6, 8, 11, 13 and 15-20 were included in PPI tests.
(§2) Approximately 14 days after planting and treating, the plants were observed and herbicidal efficacy recorded as percent inhibition by comparison with untreated plants.
(§3) Additional pre-emergence and PPI tests were conducted by the procedures described above, on warm and cool season weed species in the presence of crop species, to assess herbicidal selectivity. Crop species included in warm season tests were corn (Zea mays, ZEAMX), rice (Oryza sativa, ORYSA) and soybean (Glycine max, GLYMX). Crop species included in cool season tests were wheat (Triticum aestivum, TRZAW), barley (Hordeunm vulgare, HORVX) and oilseed rape (Brassica napus, BRSNS).
(§4) Tables 15 and 16 relate to pre-emergence and PPI tests respectively on warm season species. Table 17 relates to pre-emergence tests on cool season species.

SORVU (shattercane) = assay: Pre-plant incorporated (PPI) herbicidal activity, warm season; type: in vivo, Sorghum vulgare
Description: (§5) In another set of tests, the pre-plant incorporated (PPI) activity of compounds of this invention was evaluated on the same species as for the pre-emergence tests described above. In the PPI tests the following procedure, designed to simulate PPI application, was used.
as §1, §2

oilseed rape (BRSNS) = assay: Selectivity test, PPI, cool season crop; type: in vivo, Brassica napus; conditions: PPI application
Description: as §1, §2, §3, §4

[1] = tested on: SORHA (johnsongrass (seedling)); assay: Pre-emergence herbicidal activity, warm season; type: in vivo, Sorghum halepense; conditions: GR80 = lowest tested rate (300, 100, 30, 10 g/ha) with 80% or greater inhibition; approx. 14 days after treating; 30/21° C.
How it was run: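 Seeds sown in sterilised fertilised topsoil received surface-applied compound in 50:50 acetone/water, typically at 300, 100, 30 and 10 g/ha, then greenhouse-grown at 30/21° C (warm-season species) or 18/13° C (cool-season species). Percent inhibition versus untreated plants was scored at about 14 days, giving GR80; an asterisk marks activity short of 80% at the top rate.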

[2] = tested on: AGRRE (quackgrass (seedling)); assay: Pre-plant incorporated (PPI) herbicidal activity, cool season; type: in vivo, Elymus repens
Description: as §5, §1, §2

DIGSA (large crabgrass) = assay: Pre-emergence herbicidal activity, warm season; type: in vivo, Digitaria sanguinalis; conditions: GR80 = lowest tested rate (300, 100, 30, 10 g/ha) with 80% or greater inhibition; approx. 14 days after treating; 30/21° C.
How it was run: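 Seeds were sown in sterilized, fertilized topsoil, covered, and the soil surface was sprayed with compound in 50:50 acetone/water at 300, 100, 30 and 10 g/ha. Pots were held at 30/21 °C day/night (PANMI, DIGSA) or 18/13 °C (ALOMY, POLCO). GR80 came from percent inhibition versus untreated plants at about 14 days.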

[3] = weed, PPI application, 100 g/ha
[4] = weed, PPI application, 300 g/ha
[5] = weed, PPI application, 900 g/ha
[6] = pre-plant incorporated, lowest tested rate with 80% or greater inhibition, about 14 days

| SMILES | Percent inhibition ORYSA (rice (ORYSA); 30 g/ha) [%] | Percent inhibition ORYSA (rice (ORYSA); 100 g/ha) [%] | Percent inhibition ORYSA (rice (ORYSA); 300 g/ha) [%] | Percent inhibition ORYSA (rice (ORYSA); 900 g/ha) [%] | Percent inhibition SORVU (SORVU (shattercane); PPI application, 30 g/ha) [%] | Percent inhibition SORVU (SORVU (shattercane); PPI application, 100 g/ha) [%] | Percent inhibition SORVU (SORVU (shattercane); PPI application, 300 g/ha) [%] | Percent inhibition SORVU (SORVU (shattercane); PPI application, 900 g/ha) [%] | Percent inhibition BRSNS (oilseed rape (BRSNS); 30 g/ha) [%] | Percent inhibition BRSNS (oilseed rape (BRSNS); 100 g/ha) [%] | Percent inhibition BRSNS (oilseed rape (BRSNS); 300 g/ha) [%] | Percent inhibition BRSNS (oilseed rape (BRSNS); 900 g/ha) [%] | Pre-emergence activity (GR80) SORHA [1] [g/ha] | Percent inhibition AGRRE ([2]; weed, PPI application, 30 g/ha) [%] | Percent inhibition AGRRE [2, 3] [%] | Percent inhibition AGRRE [2, 4] [%] | Percent inhibition AGRRE [2, 5] [%] | Pre-emergence activity (GR80) DIGSA (DIGSA (large crabgrass)) [g/ha] | other results |
| --- | --- | --- | --- | --- | --- | --- | --- | --- | --- | --- | --- | --- | --- | --- | --- | --- | --- | --- | --- |
| CCN(CC)C(=O)n1cnc(S(=O)(=O)C(F)(F)F)n1 [Example 2] | 0 | 0 | 0 | 30 | 50 | 100 | 95 | 100 | 0 | 80 | 100 | 100 | 100 | 0 | 0 | 30 | 60 | 300 | – |
| CCN(CC)C(=O)n1cnc(S(=O)(=O)C(F)(F)Cl)n1 [Example 3] | 0 | 0 | 20 | 70 | 70 | 95 | 100 | 100 | 100 | 100 | 100 | 100 | 100 | 20 | 50 | 80 | 95 | 100 | – |
| CCN(CC)C(=O)n1cnc(S(=O)(=O)C(F)(F)C(F)(F)Br)n1 [Example 4] | 0 | 0 | 0 | 20 | 0 | 45 | 100 | 100 | 80 | 100 | 100 | 100 | 30 | 50 | 70 | 80 | 90 | 100 | – |
| CCSC(F)(F)S(=O)(=O)c1ncn(C(=O)N(CC)CC)n1 [Example 8, 1-(N,N-diethylcarbamoyl)-3-[difluoro(ethylthio)methylsulfonyl]-1,2,4-triazole] | – | – | – | – | – | – | – | – | – | – | – | – | 100 | – | – | – | – | 100 | inhibition at 30 g/ha (rice (ORYSA); Oryza sativa, 30 g/ha, read-out: Percent inhibition ORYSA): 0%; inhibition at 100 g/ha (rice (ORYSA); Oryza sativa, 100 g/ha, read-out: Percent inhibition ORYSA): 40%; inhibition at 300 g/ha (rice (ORYSA); Oryza sativa, 300 g/ha, read-out: Percent inhibition ORYSA): 50%; inhibition at 900 g/ha (rice (ORYSA); Oryza sativa, 900 g/ha, read-out: Percent inhibition ORYSA): 70%; inhibition at 30 g/ha (SORVU (shattercane); Sorghum bicolor, PPI application, 30 g/ha, read-out: Percent inhibition SORVU): 50%; inhibition at 100 g/ha (SORVU (shattercane); Sorghum bicolor, PPI application, 100 g/ha, read-out: Percent inhibition SORVU): 70%; inhibition at 300 g/ha (SORVU (shattercane); Sorghum bicolor, PPI application, 300 g/ha, read-out: Percent inhibition SORVU): 100%; inhibition at 900 g/ha (SORVU (shattercane); Sorghum bicolor, PPI application, 900 g/ha, read-out: Percent inhibition SORVU): 100%; PPI activity GR80, SORVU (SORVU (shattercane); [6]): 300 g/ha; inhibition at 30 g/ha (oilseed rape (BRSNS); Brassica napus, 30 g/ha, read-out: Percent inhibition BRSNS): 0%; inhibition at 100 g/ha (oilseed rape (BRSNS); Brassica napus, 100 g/ha, read-out: Percent inhibition BRSNS): 0%; inhibition at 300 g/ha (oilseed rape (BRSNS); Brassica napus, 300 g/ha, read-out: Percent inhibition BRSNS): 40%; inhibition at 900 g/ha (oilseed rape (BRSNS); Brassica napus, 900 g/ha, read-out: Percent inhibition BRSNS): 100%; inhibition at 30 g/ha ([2]; Elymus repens, weed, PPI application, 30 g/ha, read-out: Percent inhibition AGRRE): 0%; inhibition at 100 g/ha ([2]; Elymus repens, weed, PPI application, 100 g/ha, read-out: Percent inhibition AGRRE): 40%; inhibition at 300 g/ha ([2]; Elymus repens, weed, PPI application, 300 g/ha, read-out: Percent inhibition AGRRE): 70%; inhibition at 900 g/ha ([2]; Elymus repens, weed, PPI application, 900 g/ha, read-out: Percent inhibition AGRRE): 100%; PPI activity GR80, AGRRE [2, 6]: 300 g/ha |
| CCN(CC)C(=O)n1cnc(S(=O)(=O)C(F)(F)SC)n1 [Example 9] | 0 | 0 | 70 | 95 | 60 | 70 | 100 | 100 | 50 | 95 | 100 | 100 | 100 | 0 | 70 | 80 | 100 | 100 | – |
| CCN(CC)C(=O)n1cnc(S(=O)(=O)C(F)(F)SCc2ccccc2)n1 [Example 10] | 0 | 0 | 30 | 0 | 0 | 20 | 95 | 100 | 0 | 0 | 50 | 95 | 100 | 0 | 0 | 0 | 50 | 100 | Percent inhibition ORYSA (rice (ORYSA); 10 g/ha): 0%; Percent inhibition SORVU (SORVU (shattercane); PPI application, 10 g/ha): 0%; Percent inhibition BRSNS (oilseed rape (BRSNS); 10 g/ha): 0%; Percent inhibition AGRRE ([2]; weed, PPI application, 10 g/ha): 0% |
